The source of these data is patent US20200187502A1, “MICROBIOCIDAL OXADIAZOLE DERIVATIVES” (SYNGENTA PARTICIPATIONS AG, priority 2017, published 2020).

Test [1] concerns Glomerella lacenarium (Colletotrichum lacenarium). The test is described as follows: Fungicidal activity, liquid culture, cucumber preventative (anthracnose). The class given is cell-based. To be noted: 20 ppm in the applied formulation, liquid culture in PDB, inhibition of growth measured photometrically 3 to 4 days after application, compared to untreated control, read-out: disease control. Here is the method: Mycelia fragments or conidia suspensions of a fungus prepared either freshly from liquid cultures of the fungus or from cryogenic storage, are directly mixed into nutrient broth. DMSO solutions of the test compound (max. 10 mg/ml) are diluted with 0.025% Tween20 by a factor of 50 and 10 μl of this solution is pipetted into a microtiter plate (96-well format). The nutrient broth containing the fungal spores/mycelia fragments is then added to give an end concentration of the tested compound. The test plates are incubated in the dark at 24° C. and 96% relative humidity. The inhibition of fungal growth is determined photometrically after 2 to 7 days, depending on the pathosystem, and percent antifungal activity relative to the untreated check is calculated.
Conidia of the fungus from cryogenic storage are directly mixed into nutrient broth (PDB—potato dextrose broth). After placing a (DMSO) solution of test compound into a microtiter plate (96-well format), the nutrient broth containing the fungal spores is added. The test plates are incubated at 24° C. and the inhibition of growth is measured photometrically 3 to 4 days after application.
The following compounds at 20 ppm in the applied formulation give at least 80% disease control in this test when compared to untreated control under the same conditions, which show extensive disease development.

Test [2] has as its system Puccinia recondita f. Sp. Tritici. In words: Fungicidal activity, wheat leaf disc preventative (brown rust). Format: in vivo. Particulars: foliar, 200 ppm in the applied formulation, wheat leaf segments cv. Kanzler, compared to untreated control, 7 to 9 days after application, read-out: disease control. How it is done:
Leaf disks or leaf segments of various plant species are cut from plants grown in a greenhouse. The cut leaf disks or segments are placed in multiwell plates (24-well format) onto water agar. The leaf disks are sprayed with a test solution before (preventative) or after (curative) inoculation. Compounds to be tested are prepared as DMSO solutions (max. 10 mg/ml) which are diluted to the appropriate concentration with 0.025% Tween20 just before spraying. The inoculated leaf disks or segments are incubated under defined conditions (temperature, relative humidity, light, etc.) according to the respective test system. A single evaluation of disease level is carried out 3 to 14 days after inoculation, depending on the pathosystem. Percent disease control relative to the untreated check leaf disks or segments is then calculated.
Wheat leaf segments cv. Kanzler were placed on agar in multiwell plates (24-well format) and sprayed with the formulated test compound diluted in water. The leaf disks were inoculated with a spore suspension of the fungus 1 day after application. The inoculated leaf segments were incubated at 19° C. and 75% relative humidity (rh) under a light regime of 12 hours light/12 hours darkness in a climate cabinet and the activity of a compound was assessed as percent disease control compared to untreated when an appropriate level of disease damage appears in untreated check leaf segments (7 to 9 days after application).
The following compounds at 200 ppm in the applied formulation give at least 80% disease control in this test when compared to untreated control leaf disks under the same conditions, which show extensive disease development.

For the compound `CN(C)S(=O)(=O)N(C)Cc1ccc(-c2noc(C(F)(F)F)n2)s1` [Compound 6.29, N-(dimethylsulfamoyl)-N-methyl-1-[5-[5-(trifluoromethyl)-1,2,4-oxadiazol-3-yl]-2-thienyl]methanamine], the inhibition of growth at 20 ppm in test [1] is not below 80%. Besides, in test [2], the pest or weed control at 200 ppm was not below 80%.

Consider `O=C(C(=O)N(Cc1ccc(-c2noc(C(F)(F)F)n2)s1)OCC(F)F)c1ccco1` [Compound 6.64, N-(2,2-difluoroethoxy)-2-(2-furyl)-2-oxo-N-[[5-[5-(trifluoromethyl)-1,2,4-oxadiazol-3-yl]-2-thienyl]methyl]acetamide], for which, in test [1], the inhibition of growth at 20 ppm was not below 80%. Further, in test [2], the pest or weed control at 200 ppm was not below 80%.

For `CON(Cc1ccc(-c2noc(C(F)(F)F)n2)s1)S(=O)(=O)c1ccn(C)n1` [Compound 1.33, N-methoxy-1-methyl-N-[[5-[5-(trifluoromethyl)-1,2,4-oxadiazol-3-yl]-2-thienyl]methyl]pyrazole-3-sulfonamide], the inhibition of growth at 20 ppm in test [1] is not below 80%. Further, the pest or weed control at 200 ppm in test [2] was not below 80%.

Consider `CON(Cc1ccc(-c2noc(C(F)(F)F)n2)s1)C(=O)c1ccccc1Cl` [Compound 1.20, 2-chloro-N-methoxy-N-[[5-[5-(trifluoromethyl)-1,2,4-oxadiazol-3-yl]-2-thienyl]methyl]benzamide], for which the inhibition of growth at 20 ppm in test [1] is not below 80%. In test [2], the pest or weed control at 200 ppm is not below 80%.

As for `CCS(=O)(=O)N(Cc1ccc(-c2noc(C(F)(F)F)n2)s1)C1CC1` [Compound 6.35, N-cyclopropyl-N-[[5-[5-(trifluoromethyl)-1,2,4-oxadiazol-3-yl]-2-thienyl]methyl]ethanesulfonamide], the inhibition of growth at 20 ppm in test [1] is not below 80%. In addition, the pest or weed control at 200 ppm in test [2] is not below 80%.

`CC(C)CC(=O)C(=O)N(Cc1ccc(-c2noc(C(F)(F)F)n2)s1)C1CC1` [Compound 6.58, N-cyclopropyl-4-methyl-2-oxo-N-[[5-[5-(trifluoromethyl)-1,2,4-oxadiazol-3-yl]-2-thienyl]methyl]pentanamide]: the inhibition of growth at 20 ppm in test [1] is not below 80%. Further, the pest or weed control at 200 ppm in test [2] was not below 80%.

On to `CC(=O)N(Cc1ccc(-c2noc(C(F)(F)F)n2)s1)OCC(F)F` [Compound 4.69, N-(2,2-difluoroethoxy)-N-[[5-[5-(trifluoromethyl)-1,2,4-oxadiazol-3-yl]-2-thienyl]methyl]acetamide], for which the inhibition of growth at 20 ppm in test [1] is not below 80%. Also, the pest or weed control at 200 ppm in test [2] is not below 80%.

As for `O=C(C(=O)N(Cc1ccc(-c2noc(C(F)(F)F)n2)s1)C1CC1)c1ccccc1` [Compound 6.54, N-cyclopropyl-2-oxo-2-phenyl-N-[[5-[5-(trifluoromethyl)-1,2,4-oxadiazol-3-yl]-2-thienyl]methyl]acetamide], the inhibition of growth at 20 ppm in test [1] is not below 80%. Besides, the pest or weed control at 200 ppm in test [2] was not below 80%.

Regarding `CN(Cc1ccc(-c2noc(C(F)(F)F)n2)s1)C(=O)c1ccccc1Cl` [Compound 5.17, 2-chloro-N-methyl-N-[[5-[5-(trifluoromethyl)-1,2,4-oxadiazol-3-yl]-2-thienyl]methyl]benzamide], the inhibition of growth at 20 ppm in test [1] was not below 80%. Besides, the pest or weed control at 200 ppm in test [2] was not below 80%.

Regarding `CCN(Cc1ccc(-c2noc(C(F)(F)F)n2)s1)C(=O)C(=O)c1cccs1` [Compound 6.45, N-ethyl-2-oxo-2-(2-thienyl)-N-[[5-[5-(trifluoromethyl)-1,2,4-oxadiazol-3-yl]-2-thienyl]methyl]acetamide], in test [1], the inhibition of growth at 20 ppm is not below 80%. Further, the pest or weed control at 200 ppm in test [2] was not below 80%.

On to `O=C(N(Cc1ccc(-c2noc(C(F)(F)F)n2)s1)C1CC1)N(CC(F)F)C1CC1` [Compound 5.60, 1,3-dicyclopropyl-1-(2,2-difluoroethyl)-3-[[5-[5-(trifluoromethyl)-1,2,4-oxadiazol-3-yl]-2-thienyl]methyl]urea], for which the inhibition of growth at 20 ppm in test [1] was not below 80%. The pest or weed control at 200 ppm in test [2] was not below 80%.

Consider `COCCS(=O)(=O)N(Cc1ccc(-c2noc(C(F)(F)F)n2)s1)C1CC1` [Compound 6.32, N-cyclopropyl-2-methoxy-N-[[5-[5-(trifluoromethyl)-1,2,4-oxadiazol-3-yl]-2-thienyl]methyl]ethanesulfonamide], for which the inhibition of growth at 20 ppm in test [1] was not below 80%. In addition, the pest or weed control at 200 ppm in test [2] was not below 80%.

For the compound `O=S(=O)(C1CC1)N(Cc1ccc(-c2noc(C(F)(F)F)n2)s1)C1CC1` [Compound 6.38, N-cyclopropyl-N-[[5-[5-(trifluoromethyl)-1,2,4-oxadiazol-3-yl]-2-thienyl]methyl]cyclopropanesulfonamide], the inhibition of growth at 20 ppm in test [1] was not below 80%. Further, the pest or weed control at 200 ppm in test [2] is not below 80%.

As to `CCN(Cc1ccc(-c2noc(C(F)(F)F)n2)s1)S(=O)(=O)C1CC1` [Compound 6.19, N-ethyl-N-[[5-[5-(trifluoromethyl)-1,2,4-oxadiazol-3-yl]-2-thienyl]methyl]cyclopropanesulfonamide], in test [1], the inhibition of growth at 20 ppm is not below 80%. The pest or weed control at 200 ppm in test [2] was not below 80%.

With `CN(C)S(=O)(=O)N(Cc1ccc(-c2noc(C(F)(F)F)n2)s1)C1CC1` [Compound 6.2, N-(dimethylsulfamoyl)-N-[[5-[5-(trifluoromethyl)-1,2,4-oxadiazol-3-yl]-2-thienyl]methyl]cyclopropanamine], in test [1], the inhibition of growth at 20 ppm was not below 80%. The pest or weed control at 200 ppm in test [2] is not below 80%.

Regarding `CC(C)N(Cc1ccc(-c2noc(C(F)(F)F)n2)s1)C(=O)c1ccccc1Cl` [Compound 5.26, 2-chloro-N-isopropyl-N-[[5-[5-(trifluoromethyl)-1,2,4-oxadiazol-3-yl]-2-thienyl]methyl]benzamide], in test [1], the inhibition of growth at 20 ppm is not below 80%. For the same compound, the pest or weed control at 200 ppm in test [2] is not below 80%.

For `CON(Cc1ccc(-c2noc(C(F)(F)F)n2)s1)S(=O)(=O)C1CC1` [Compound 1.37, N-methoxy-N-[[5-[5-(trifluoromethyl)-1,2,4-oxadiazol-3-yl]-2-thienyl]methyl]cyclopropanesulfonamide], in test [1], the inhibition of growth at 20 ppm was not below 80%. In addition, the pest or weed control at 200 ppm in test [2] was not below 80%.

`COCC(=O)N(C)Cc1ccc(-c2noc(C(F)(F)F)n2)s1` [Compound 4.32, 2-methoxy-N-methyl-N-[[5-[5-(trifluoromethyl)-1,2,4-oxadiazol-3-yl]-2-thienyl]methyl]acetamide]: the inhibition of growth at 20 ppm in test [1] was not below 80%. Moreover, in test [2], the pest or weed control at 200 ppm was not below 80%.

For `CS(=O)(=O)N(Cc1ccc(-c2noc(C(F)(F)F)n2)s1)C1CC1` [Compound 6.1, N-cyclopropyl-N-[[5-[5-(trifluoromethyl)-1,2,4-oxadiazol-3-yl]-2-thienyl]methyl]methanesulfonamide], the inhibition of growth at 20 ppm in test [1] was not below 80%. Moreover, in test [2], the pest or weed control at 200 ppm was not below 80%.

With `CCN(Cc1ccc(-c2noc(C(F)(F)F)n2)s1)C(=O)C(=O)CC(C)C` [Compound 6.44, N-ethyl-4-methyl-2-oxo-N-[[5-[5-(trifluoromethyl)-1,2,4-oxadiazol-3-yl]-2-thienyl]methyl]pentanamide], the inhibition of growth at 20 ppm in test [1] is not below 80%. In addition, the pest or weed control at 200 ppm in test [2] is not below 80%.

Regarding `COC(=O)N(Cc1ccc(-c2noc(C(F)(F)F)n2)s1)OC` [Compound 1.5, methyl N-methoxy-N-[[5-[5-(trifluoromethyl)-1,2,4-oxadiazol-3-yl]-2-thienyl]methyl]carbamate], the inhibition of growth at 20 ppm in test [1] is not below 80%. Also, the pest or weed control at 200 ppm in test [2] was not below 80%.
